# Measured values published in US20100196326A1, “METHOD AND SYSTEM FOR BIASING CELLULAR DEVELOPMENT” (priority 2004, published 2010).
# Entries after “also recorded” stand apart in the source; their conditions may differ.
# Key:
# Assay type in all cases: cell-based, human
# NT2/D1 cells [1] = test: cell viability assay (trypan blue) and DNA fragmentation analysis after STS treatment
# Method: (§1) The NT2/D1 cells were seeded (5×10^6 cells per 10 cm Petri dish) in Dulbecco's modified Eagle's medium (DMEM/F-12; Invitrogen) supplemented with 10% heat inactivated fetal bovine serum (FBS; Invitrogen), 0.4 μl/ml penicillin-streptomycin (Invitrogen), and 4 mM glutamine (Invitrogen) and maintained in a humidified atmosphere of 5% CO2/95% air at 37° C. For astrocytic differentiation, 1×10^6 cells were seeded in a 6 well plate and treated three times a week for 3 weeks with 40 nM STS (Sigma). Cells were split twice a week by short exposure to trypsin/EDTA (Invitrogen). Subsequently, these NT2/A cells were evaluated for expression of astrocytic markers and […] by RT-PCR and western blot analysis. After incubation with a different time and concentration of STS, cells were trypsinized and viable cells were counted with a hemocytometer using trypan blue exclusive assay.
# NT2/D1 cells [2] = test: STS-induced astrocytic differentiation, morphology by microscopy; conditions: 40 nM STS
# Method: as §1
# Typical fluorescent microscopic pictures of the transfected cell were taken 48 hr after the transfection in a 8 well chamber slides. The cells expressing EGFP were detected by green fluorescence.
# NT2/D1 cells [3] = test: RT-PCR of astrocyte specific and APP gene expression in treated NT2 cells
# Method: as §1
# Total RNA was extracted from the cells and 1 μg of the RNA was reverse-transcribed and amplified using the SuperScript™ ONE STEP™ RT-PCR System (Invitrogen) with the following primers.
compound,measurement,setting,value
"CN[C@@H]1C[C@H]2O[C@@](C)([C@@H]1OC)n1c3ccccc3c3c4c(c5c6ccccc6n2c5c31)C(=O)NC4 [STS, Staurosporine]",start of mass cell death,NT2/D1 cells [1]; 40 nM STS,8 h
same,cell viability and DNA fragmentation,NT2/D1 cells [1]; STS treatment,cell death
same,induction of NT2/A cells (astrocytic morphology),NT2/D1 cells [2],induced NT2/A cells; also recorded: induces morphological and functional differentiation
same,"astrocyte specific gene expression (GFAP, LIF, Delta, Jagged-1, BMP-2, 4, BMP-7, GLT-1/EAAT-2, GLAST/EAAT-1)","NT2/D1 cells [3]; 40 nM STS, RT-PCR",induced astrocyte specific gene expression
same,APP gene expression,NT2/D1 cells [3]; during STS-induced astro-gliogenesis,increased in time-dependent manner; also recorded: higher expression level
